“Also recorded” adds a separate entry of the source. Counter-ions that a name gives are not always drawn.
Experiments:
[1] = Calcium Scale Inhibitor Test (NACE test method TM-03-74), calcium carbonate scale; conditions: for Percent Inhibition at 24 Hrs. / Percent Inhibition at 48 Hrs. / Percent Inhibition at 72 Hrs.: 10 ppm based on active acid content; for threshold activity (in words): threshold agent, less than stoichiometric amounts
Protocol: To show the utility of the above compounds as scale inhibitors, the following test was run.
Calcium Scale Inhibitor Test
The compounds were evaluated as scale inhibitors for calcium carbonate scale according to National Association of Corrosion Engineers (NACE) test method TM-03-74. Note the dramatic improvement of the phosphonic acids prepared from the bis(aminoethyl)piperazine and bis(aminopropyl)piperazine compounds of this invention when compared to aminoethylpiperazinetrimethylenephosphonic acid taught in the U.S. patent literature as a good scale inhibition compound.
*ppm based on active acid content

[2] = Titration with standard copper solution in the presence of chrome azurol-S indicator (sequestering/chelating); conditions: titrated with standard copper solution
Excerpt: The compounds of this invention can also function as sequestering/chelating agents. For example, compounds were titrated with standard copper solution in the presence of chrome azurol-S indicator. The compound of Example 9 complexed about one mole of copper per mole of ligand. […] The compound of Example 3 was titrated and found to complex approximately three moles of copper per mole of ligand. The compound can function as either a threshold compound or a chelating agent.

| Structure (SMILES) | Percent Inhibition at 24 Hrs. [1] [%] | Percent Inhibition at 48 Hrs. [1] [%] | Percent Inhibition at 72 Hrs. [1] [%] | copper complexed per mole of ligand [2] | threshold activity (in words) [1] |
| --- | --- | --- | --- | --- | --- |
| O=P(O)(O)CN(CCCN1CCN(CCCN(CP(=O)(O)O)CP(=O)(O)O)CC1)CP(=O)(O)O [Example 1, completely phosphonomethylated bis(aminopropyl)piperazine] | 99 | 93 | 90 | – | – |
| O=P(O)(O)CNCCCN1CCN(CCCN(CP(=O)(O)O)CP(=O)(O)O)CC1 [Example 2] | 99 | 93 | 91 | – | – |
| O=P(O)(O)CN(CCN1CCN(CCN(CP(=O)(O)O)CP(=O)(O)O)CC1)CP(=O)(O)O [Example 3] | 99 | 91 | 89 | approximately three | – |
| O=P(O)(O)CNCCN1CCN(CCN(CP(=O)(O)O)CP(=O)(O)O)CC1 [Example 4] | 97 | 87 | 79 | – | – |
| O=C(O)CN(CCN1CCN(CCN(CP(=O)(O)O)CP(=O)(O)O)CC1)CP(=O)(O)O [Example 5] | 96 | 89 | 83 | – | – |
| O=P(O)(O)CN(CCN1CCN(CCN(CP(=O)(O)O)CP(=O)(O)O)CC1)CC(O)CS(=O)(=O)O (stereo not shown) [Example 6] | 85 | 73 | 75 | – | – |
| O=P(O)(O)CN(CCCN1CCN(CCCN(CP(=O)(O)O)CP(=O)(O)O)CC1)CC(O)CS(=O)(=O)O (stereo not shown) [Example 7] | 92 | 77 | 79 | – | – |
| CC(O)CN(CCN1CCN(CCN(CP(=O)(O)O)CP(=O)(O)O)CC1)CP(=O)(O)O (stereo not shown) [Example 8] | 79 | 77 | 73 | – | – |
| O=C(O)CN(CCN1CCN(CCN(CC(=O)O)CC(=O)O)CC1)CC(=O)O [Example 9, tetrasodium salt of bis(aminoethyl)piperazine-tetraacetic acid] | 55 | 51 | 50 | about one | not a good threshold compound; also recorded: ineffective as a threshold compound |
| O=P(O)(O)CN1CCN(CCN(CP(=O)(O)O)CP(=O)(O)O)CC1 [Example A, aminoethylpiperazine trimethylenephosphonic acid, reference compound] | 77 | 65 | 60 | – | not have very good threshold activity |

From patent publication US4680396A, “Bis(aminoalkyl)piperazine derivatives and their use as metal ion control agents” (The Dow Chemical Company, priority 1984, dated 1987)
